Patent publication US8993587B2, “Combination of syrosingopine and mitochondrial inhibitors for the treatment of cancer and immunosuppression” (Universitat Basel, priority 2011, dated 2015)
Counter-ions that a name gives are not always drawn. Like-named read-outs stand apart in the source and are kept apart here.

Key:
cancer test cell lines = experiment: Interaction of rauwolfia-related compounds with metformin; type: cell-based
Description: 6.5 cells show many features of oncogenic transformation such as loss of growth-factor (IL3) dependence and signaling pathway addiction. […]. These cells display exquisite sensitivity to many clinical drugs. […].

mouse mast cell line 6.5 [1] = tested on: mouse mast cell line 6.5
mouse mast cell line 6.5 [2] = experiment: AlamarBlue cell proliferation assay, mouse mast cell line 6.5; type: cell-based
Protocol: (§1) AlamarBlue conversion cell proliferation assay. […] All data points were performed in tripliclate.

[3] = tested on: murine 6.5 cells (inner mitochondrial membrane potential); experiment: Mitochondrial membrane potential by TMRM fluorescence assay; type: cell-based, mouse; conditions: TMRM 100 nM 20 min, control peak 403, syrosingopine pre-incubation 4 h (highest amount), FCCP pre-treatment 1 h (FIG. 11)
Protocol: Murine 6.5 cells were treated with TMRM (panels 1-6), and in addition pre-incubated with FCCP (panel 2), syrosingopine at 0.1 μM (panel 3), 0.5 μM (panel 4), 2 μM (panel 5) or at 5 μM (panel 6) and fluorescence intensity was measured. Thin lines: fluorescence intensity of control cells or FCCP-treated cells (panel 2). Heavy lines indicate cells pre-incubated additionally with syrosingopine (panels 3-6). X-axis indicates fluorescence intensity, Y-axis indicates relative cell numbers.
Murine 6.5 cells were treated for 20 min with the potentiometric fluorescent dye TMRM (tetramethylrhodamine methyl ester, AbD Serotec, 100 nM) and the fluorescence intensity was measured at 575 nm emission after excitation at 488 nm using a flow cytometer (CellLabQuanta, Beckman Coulter). This dye accumulates in the mitochondrial matrix when the inner membrane potential is more positive outside due to the extrusion of protons. […] The effect of syrosingopine was assessed by pre-incubating cells with increasing concentrations of syrosingopine for 4 h as indicated, followed by TMRM staining.

Jurkat cells = experiment: AlamarBlue cell proliferation assay, Jurkat; type: cell-based, human; conditions: syrosingopine titration, metformin 5 mM, 3 days (FIG. 1D)
Protocol: as §1

RPMI8226 cells [4] = experiment: AlamarBlue cell proliferation assay, RPMI8226; type: cell-based, human; conditions: syrosingopine titration, metformin 5 mM, 3 days
Protocol: as §1

RPMI8226 cells [5] = experiment: Apoptosis assay (annexin V / propidium iodide FACS), RPMI8226; type: cell-based, human; conditions: 2 μM syrosingopine, 1 mM metformin, singly or combined, 3 days (FIG. 3)
Protocol: (§2) OPM2 and RPM18226 cells were seeded at a density of 100,000 cells/5 ml medium with addition of compounds. […] RPM18226: 2 μM syrosingopine (S), 1 mM metformin (M). […] Annexin V is an apoptotic marker and was detected using a FITC-coupled antibody on the FL1-channel. Propidium iodide (PI) exclusion staining for vital cells was detected simultaneously on the FL3-channel. For each measurement, the PI and annexin V negative cells represent the viable cell population (white bars). Early apoptotic cells are PI-negative, annexin V-positive (hatched bars) and late apoptotic cells are PI-positive, annexin V-positive (black bars). Bars are plotted on the Y-axis as a percentage of the total cell population.
(§3) Apoptosis was determined by Annexin V-FITC (Invitrogen) and propidium iodide counter-staining, and cells were analysed by FACS to distinguish between viable/early apoptotic/late apoptotic cell sub-populations. Cells were seeded at a density of 100,000 cells/5 ml medium with addition of compounds as indicated. 500 μl of culture was harvested after 3 days and the cells were washed and stained with PI/Annexin V before FACs analysis.

OPM2 cells [6] = experiment: AlamarBlue cell proliferation assay, OPM2; type: cell-based, human; conditions: for growth inhibition, combined versus each compound singly: syrosingopine titration, metformin 5 mM, 3 days (FIG. 1B)
Protocol: as §1

[7] = tested on: human peripheral blood leukocytes; experiment: Phytohaemagglutinin-stimulated T cell proliferation; type: cell-based; conditions: PHA 10 μg/ml; day 3; syrosingopine titration with or without metformin 4 mM (FIG. 7, right)
Protocol: Human peripheral blood leukocytes were cultured in presence or absence of phytohaemagglutinin.
Normal human buffy coat cells were obtained from a local blood donation center in accordance with the ethical guidelines. 80 ml of blood was diluted with 200 ml of Iscove's medium and overlayed on a Ficoll gradient. The gradient was centrifuged at 1400×g for 5 minutes to separate the leukocyte fraction from erythrocytes. Cells were plated on coated tissue culture dishes for 1 hour to remove adherent cells, and the remaining suspension cells were collected by centrifugation and counted with a haemocytometer. 50,000 cells were seeded per well in 96-well dishes and compounds were added according to the various treatment regimes to a final medium volume of 150 μl. For stimulation, phytohemagglutinin was added to a final concentration of 10 μg/ml. At day 3, proliferation was determined by AlamarBlue assay.

[8] = tested on: 6.5 cell tumors in DBA mice; conditions: mouse, in vivo
Protocol: Drug treatment commenced when tumors reached 100 mm^2 in size. Mice were separated into treatment groups and injected intra-peritoneally with PBS (horizontal bars), syrosingopine (S, filled diamonds, 2 mg/kg body weight), metformin (M, filled triangles, 250 mg/kg body weight) and metformin plus syrosingopine (S+M, crossed squares) daily for 15 days. Mice were sacrificed when tumor size became excessive (day 15) and tumors were dissected for measurement. (A) Chart showing tumor area (in mm^2) measured over the course of the treatment, d=days. (B) Mean body weight (g) of the mice at the time of sacrifice. Figures (n) above each bar indicate the number of mice per treatment group.
4×10^56.5 cells were injected in 150 μl of PBS into the flanks of immuno-compatible DBA mice. Tumor progression was monitored and treatment was started when tumor area reached 100 mm^2 in size. Mice were injected intra-peritoneally daily with metformin (250 mg/kg body weight), syrosingopine (2 mg/kg body weight) or combined for 15 days before being sacrificed for tumor tissue measurements.

K562 cells = experiment: AlamarBlue cell proliferation assay, K562; type: cell-based, human; conditions: syrosingopine titration, metformin 5 mM, 3 days (FIG. 1E)
Protocol: as §1

OPM2 cells [9] = experiment: Apoptosis assay (annexin V / propidium iodide FACS), OPM2; type: cell-based, human; conditions: 5 μM syrosingopine, 2 mM metformin, singly or combined, 3 days (FIG. 3)
Protocol: as §2, §3

HL60 cells = type: cell-based, human; conditions: oligomycin at a concentration below 1 nM, 3 days (FIG. 10B)
Protocol: as §1

[10] = 6.5 cells, agent at fixed, non- or minimally toxic concentration (FIG. 8) with increasing syrosingopine, 3 days

COC(=O)[C@H]1[C@H]2C[C@H]3c4[nH]c5ccccc5c4CCN3C[C@@H]2CC[C@@H]1O.Cl [corynanthine HCl]
interaction with metformin (cancer test cell lines): do not show significant interaction

N#CC(=C(/N)Sc1ccccc1N)/C(C#N)=C(\N)Sc1ccccc1N [U0126]
sensitivity of 6.5 cells to inhibitor (mouse mast cell line 6.5 [1]): sensitive to nanomolar concentrations

N#CC(C#N)=NNc1ccc(OC(F)(F)F)cc1 [FCCP, Carbonyl cyanide-p-trifluoromethoxyphenylhydrazone]
synergistic killing with syrosingopine (mouse mast cell line 6.5 [2]): induced synergistic killing
TMRM fluorescence peak [3]: 42 arbitrary units

O=C(O)[C@@H]1[C@H]2C[C@H]3c4[nH]c5ccccc5c4CCN3C[C@@H]2CC[C@@H]1O [yohimbinic acid]
interaction with metformin (cancer test cell lines): do not show significant interaction

COC(=O)[C@H]1[C@H]2C[C@@H]3c4[nH]c5cc(OC)ccc5c4CCN3C[C@H]2C[C@@H](OC(=O)/C=C/c2cc(OC)c(OC)c(OC)c2)[C@@H]1OC [rescinnnamine]
interaction with metformin (cancer test cell lines): do not show significant interaction

N=C(N)NC(=N)NCCc1ccccc1 [phenformin, 1-(diaminomethylidene)-2-(2-phenylethyl)guanidine]
growth inhibition, phenformin alone (mouse mast cell line 6.5 [2]; 6.5 cells, concentrations up to 10 μM, 3 days (FIG. 6, left)): no growth inhibition
synergy with syrosingopine (mouse mast cell line 6.5 [2]; 6.5 cells, phenformin 10 μM combined with increasing concentrations of syrosingopine, 3 days (FIG. 6, right)): strong synergistic effect

CCOC(=O)Oc1c(OC)cc(C(=O)O[C@@H]2C[C@@H]3CN4CCc5c([nH]c6cc(OC)ccc56)[C@H]4C[C@@H]3[C@H](C(=O)OC)[C@H]2OC)cc1OC [syrosingopine]
growth inhibition, combined versus each compound singly (Jurkat cells): only a marginal effect
growth inhibition, combined versus each compound singly (RPMI8226 cells [4]): only a marginal effect
apoptotic induction (annexin V / PI) (RPMI8226 cells [5]): No apoptotic induction
inhibition of growth, syrosingopine alone (mouse mast cell line 6.5 [2]; 6.5 cells, syrosingopine titration without metformin, 3 days (FIG. 1A)): virtually non-inhibitory
TMRM fluorescence peak [3]: 955 arbitrary units
growth inhibition, combined versus each compound singly (OPM2 cells [6]; OPM2): only a marginal effect
inhibition of PHA-stimulated proliferation [7]: considerably less so
signs of overt toxicity ([8]; DBA): no significant difference in body weight between the treatment groups (FIG. 5B) or any signs of overt toxicity
body weight at sacrifice [8]: no significant difference in body weight
growth inhibition, combined versus each compound singly (K562 cells): only a marginal effect
apoptotic induction (annexin V / PI) (OPM2 cells [9]): No apoptotic induction

CC[C@@H]1/C=C/C=C/C[C@H](C)C(O)[C@](C)(O)C(=O)[C@H](C)[C@@H](O)[C@H](C)C(=O)[C@H](C)[C@@H](O)[C@H](C)/C=C/C(=O)O[C@H]2[C@@H](C)[C@@H](CC1)O[C@@]1(CC[C@@H](C)[C@@H](C[C@H](C)O)O1)[C@@H]2C (stereo partly drawn) [oligomycin, Oligomycin]
killing in combination with syrosingopine (HL60 cells): kills human cancer lines
toxicity of the mitochondrial inhibitor alone (mouse mast cell line 6.5 [2]; 6.5 cells, absence of syrosingopine, concentrations employed for synergistic killing, 3 days (FIG. 9)): without toxic effect
synergistic killing with syrosingopine (mouse mast cell line 6.5 [2]; [10]): induced synergistic cell killing
killing in combination with syrosingopine (OPM2 cells [6]; OPM2, oligomycin at a concentration below 1 nM, 3 days (FIG. 10C)): kills human cancer lines

COC(=O)[C@@H]1[C@H]2C[C@H]3c4[nH]c5ccccc5c4CCN3C[C@@H]2CC[C@@H]1O [yohimbine HCl]
interaction with metformin (cancer test cell lines): do not show significant interaction

COC(=O)C1=CO[C@@H](C)[C@H]2CN3CCc4c([nH]c5ccccc45)[C@@H]3C[C@H]12 [ajmalicine]
interaction with metformin (cancer test cell lines): do not show significant interaction

COc1ccc2c3c([nH]c2c1)[C@H]1C[C@H]2[C@H](C[C@@H](O)[C@H](OC)[C@H]2C(=O)O)CN1CC3 [reserpinnic acid]
interaction with metformin (cancer test cell lines): do not show significant interaction

CN(C)C(=N)NC(=N)N [metformin, 3-(diaminomethylidene)-1,1-dimethylguanidine hydrochloride]
growth inhibition, combined versus each compound singly (Jurkat cells): only a marginal effect
growth inhibition, combined versus each compound singly (RPMI8226 cells [4]): only a marginal effect
apoptotic induction (annexin V / PI) (RPMI8226 cells [5]): No apoptotic induction
inhibition at 5000 µM (mouse mast cell line 6.5 [2]; Mus musculus, Mast cell, 72 h, 6.5 cells, metformin alone at 5 mM, 3 days (FIG. 1A), read-out: inhibition of growth): 20%
growth inhibition, combined versus each compound singly (OPM2 cells [6]; OPM2): only a marginal effect
body weight at sacrifice [8]: no significant difference in body weight
growth inhibition, combined versus each compound singly (K562 cells): only a marginal effect
apoptotic induction (annexin V / PI) (OPM2 cells [9]): No apoptotic induction

O=C([O-])CC(=O)[O-].[Na+].[Na+] [sodium malonate, Sodium malonate]
synergistic killing with syrosingopine (mouse mast cell line 6.5 [2]; [10]): Synergistic killing

COC(=O)[C@H]1[C@H]2C[C@H]3c4[nH]c5ccccc5c4CCN3C[C@H]2CC[C@@H]1O [rauwolscine HCl]
interaction with metformin (cancer test cell lines): do not show significant interaction

O=C(CC(=O)C(F)(F)F)c1cccs1 [TTFA, 2-Thenoyltrifluoroacetone]
synergistic killing with syrosingopine (mouse mast cell line 6.5 [2]; [10]): Synergistic killing

CCCCCC[C@H]1C(=O)O[C@H](C)[C@H](NC(=O)c2cccc(NC=O)c2O)C(=O)O[C@@H](C)[C@@H]1OC(=O)CC(C)C [antimycin A, Antimycin A]
synergistic killing with syrosingopine (mouse mast cell line 6.5 [2]): Synergistic killing

COC(=O)[C@H]1[C@H]2C[C@@H]3c4[nH]c5cc(OC)ccc5c4CCN3C[C@H]2C[C@@H](OC(=O)c2cc(OC)c(OC)c(OC)c2)[C@@H]1OC [reserpine]
interaction with metformin (mouse mast cell line 6.5 [2]; 6.5 cells, reserpine over a range of concentrations, metformin 5 mM (FIG. 4)): No interaction
interaction with metformin (OPM2 cells [6]; OPM2 cells, reserpine over a range of concentrations, metformin 5 mM (FIG. 4)): No interaction
interaction with metformin (cancer test cell lines): do not show significant interaction

Stavudine
synergistic killing with syrosingopine (mouse mast cell line 6.5 [2]; [10]): induced synergistic killing
